Test system: male db/db mice
Test: Antidiabetic efficacy of oral compound in male db/db mice (nonfasting serum glucose and triglycerides after 14 days)
Assay type: in vivo
Details: for Serum triglycerides, Mean ± SEM / Serum glucose, Mean ± SD: 100 mg/kg/day oral gavage once daily for 2 weeks, nonfasting serum, N = 5 mice/group; for Serum triglycerides, Mean ± SEM: vehicle 220.8 ± 62.1; for Serum glucose, Mean ± SD: vehicle 735.0 ± 66.0; for Effect on nonfasting serum glucose relative to vehicle-treated mice (in words) / Effect on nonfasting serum triglycerides relative to vehicle-treated mice (in words): 100 mg/kg/day oral, 2 weeks
Text: Male db/db mice have a defect in the receptor for the appetite-regulating protein leptin and consequently develop hyperphagia, obesity, insulin resistance, hyperglycemia, and hypertriglyceridemia. Furthermore, male db/db mice undergo progressive islet failure, resulting in a transition from hyperinsulinemia to insulin deficiency.
Male db/db mice (10 weeks old) were divided into weight-matched groups of 5 mice each. Age-matched male C57BL/6 mice were used as lean control animals. Mice received once-daily oral (gavage) doses of the vehicle (1% hydroxypropylmethylcellulose in water), Compound BI, Compound CF, or Compound DN for two weeks. Treatment groups and drug doses were as follows. • 1. Vehicle • 2. Compound BI 100 mg/kg/day • 3. Compound CF 100 mg/kg/day • 4. Compound DN 100 mg/kg/day
Nonfasting blood samples were collected after 14 days of treatment for determination of serum glucose, triglycerides, and free fatty acids.

SMILES | Serum triglycerides, Mean ± SEM | Serum glucose, Mean ± SD | Effect on nonfasting serum glucose relative to vehicle-treated mice (in words) | Effect on nonfasting serum triglycerides relative to vehicle-treated mice (in words)
Cc1cccc(C)c1COc1cccc(C(=O)CCC(=O)O)c1 [Compound BI, 4-(3-(2,6-Dimethylbenzyloxy)phenyl)-4-oxobutyric acid] | 85.8 ± 13.0 mg/dL | 257.0 ± 57.0 mg/dL | significantly reduced | significantly reduced
Cc1cccc(C)c1COc1cccc(CC(=O)O)c1 [Compound CF, 3-(2,6-Dimethylbenzyloxy)phenylacetic acid] | 90.5 ± 17.4 mg/dL | 441.0 ± 162.0 mg/dL | significantly reduced | significantly reduced
O=C(O)Cc1cccc(OCc2ccc(C(F)(F)F)cc2C(F)(F)F)c1 [Compound DN, 3-(2,4-Bis(trifluoromethyl)benzyloxy)phenylacetic acid] | 157.2 ± 40.3 mg/dL | 396.0 ± 84.0 mg/dL | significantly reduced | significantly reduced
